Patent US12258327B2, “5-membered heteroaryl-containing aminopyridine compounds as EGFR inhibitors” (YUHAN CORPORATION, priority 2021, dated 2025)
Where two headings read alike, the source gives them in different places.

What was measured:
[1] = biological target: EGFR del19/C797S (Homo sapiens, UniProt P00533, C797S/DEL746-750); assay: Biochemical EGFR kinase assay (Lance Ultra TR-FRET), double mutant del19/C797S; conditions: Km ATP; read-out: IC50 del19/C797S (nM) Km ATP
Procedure: (§1) Biochemical EGFR kinase assays were conducted using Lance Ultra time-resolved fluorescence resonance energy transfer (TR-FRET) technology from Perkin-Elmer. Compounds of the invention were initially diluted to 20 mM in 100% DMSO for storage and made into kinase buffer solution to create a compound concentration ranging from 0.003 μM and 10 μM.
(§2) Each kinase reactions were incubated at room temperature for 1 hour and then stopped by the addition of 4 μL of stop solution (10 mM EDTA). The specific Europium-labeled-anti-phosphopeptide antibody (PerkinElmer, AD0069) diluted in LANCE detection buffer was then added to a final concentration of 2 nM. After 60 minutes incubation at room temperature the LANCE signal was measured on an EnVision Multilabel Reader (Perkin-Elmer). Excitation wavelength was set at 320 nm and emission monitored at 615 nm (donor) and 665 nm (acceptor). The IC50 values were determined using GraphPad prism software (GraphPad Software, Inc., San Diego, CA, USA).

[2] = biological target: EGFR del19/T790M/C797S (Homo sapiens, UniProt P00533, C797S/DEL746-750/T790M); assay: Biochemical EGFR kinase assay (Lance Ultra TR-FRET), triple mutant del19/T790M/C797S
Sequence of EGFR del19/T790M/C797S (P00533 with tags, fused parts or gaps DEL746-750/T790M/C797S): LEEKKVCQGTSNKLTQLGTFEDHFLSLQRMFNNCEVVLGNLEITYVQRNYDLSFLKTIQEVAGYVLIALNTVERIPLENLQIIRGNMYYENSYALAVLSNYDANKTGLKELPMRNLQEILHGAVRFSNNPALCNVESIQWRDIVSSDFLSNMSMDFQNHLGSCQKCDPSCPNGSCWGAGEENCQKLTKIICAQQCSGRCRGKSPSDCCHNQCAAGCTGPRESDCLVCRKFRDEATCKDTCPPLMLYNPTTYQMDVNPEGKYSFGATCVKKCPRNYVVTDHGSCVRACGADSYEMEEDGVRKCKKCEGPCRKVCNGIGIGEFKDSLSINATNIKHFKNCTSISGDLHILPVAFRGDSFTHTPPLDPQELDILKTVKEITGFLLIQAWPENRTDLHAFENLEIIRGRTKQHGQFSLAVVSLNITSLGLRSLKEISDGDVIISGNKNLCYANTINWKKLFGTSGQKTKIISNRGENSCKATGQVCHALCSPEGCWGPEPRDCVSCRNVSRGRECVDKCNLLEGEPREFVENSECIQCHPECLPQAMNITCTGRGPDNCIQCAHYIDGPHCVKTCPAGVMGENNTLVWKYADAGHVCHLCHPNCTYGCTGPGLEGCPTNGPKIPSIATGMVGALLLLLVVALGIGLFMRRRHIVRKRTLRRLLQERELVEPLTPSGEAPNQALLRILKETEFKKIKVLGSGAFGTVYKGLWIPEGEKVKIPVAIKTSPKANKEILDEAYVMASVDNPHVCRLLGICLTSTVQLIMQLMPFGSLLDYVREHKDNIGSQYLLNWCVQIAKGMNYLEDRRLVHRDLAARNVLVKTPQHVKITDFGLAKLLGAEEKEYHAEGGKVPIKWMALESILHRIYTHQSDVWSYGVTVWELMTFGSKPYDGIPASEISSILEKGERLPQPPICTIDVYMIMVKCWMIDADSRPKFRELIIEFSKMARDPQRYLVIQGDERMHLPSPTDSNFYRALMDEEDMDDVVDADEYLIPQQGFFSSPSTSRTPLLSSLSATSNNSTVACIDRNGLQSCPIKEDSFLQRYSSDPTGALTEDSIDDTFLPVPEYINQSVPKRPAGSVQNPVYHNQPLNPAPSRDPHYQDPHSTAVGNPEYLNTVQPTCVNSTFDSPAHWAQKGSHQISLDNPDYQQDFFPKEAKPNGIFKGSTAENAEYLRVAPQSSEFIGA
Procedure: as §1, §2

[3] = biological target: EGFR L858R/T790M/C797S (Homo sapiens, UniProt P00533, C797S/L858R/T790M); assay: Biochemical EGFR kinase assay (Lance Ultra TR-FRET), triple mutant L858R/T790M/C797S
Sequence of EGFR L858R/T790M/C797S (P00533 25-1210 T790M/C797S/L858R): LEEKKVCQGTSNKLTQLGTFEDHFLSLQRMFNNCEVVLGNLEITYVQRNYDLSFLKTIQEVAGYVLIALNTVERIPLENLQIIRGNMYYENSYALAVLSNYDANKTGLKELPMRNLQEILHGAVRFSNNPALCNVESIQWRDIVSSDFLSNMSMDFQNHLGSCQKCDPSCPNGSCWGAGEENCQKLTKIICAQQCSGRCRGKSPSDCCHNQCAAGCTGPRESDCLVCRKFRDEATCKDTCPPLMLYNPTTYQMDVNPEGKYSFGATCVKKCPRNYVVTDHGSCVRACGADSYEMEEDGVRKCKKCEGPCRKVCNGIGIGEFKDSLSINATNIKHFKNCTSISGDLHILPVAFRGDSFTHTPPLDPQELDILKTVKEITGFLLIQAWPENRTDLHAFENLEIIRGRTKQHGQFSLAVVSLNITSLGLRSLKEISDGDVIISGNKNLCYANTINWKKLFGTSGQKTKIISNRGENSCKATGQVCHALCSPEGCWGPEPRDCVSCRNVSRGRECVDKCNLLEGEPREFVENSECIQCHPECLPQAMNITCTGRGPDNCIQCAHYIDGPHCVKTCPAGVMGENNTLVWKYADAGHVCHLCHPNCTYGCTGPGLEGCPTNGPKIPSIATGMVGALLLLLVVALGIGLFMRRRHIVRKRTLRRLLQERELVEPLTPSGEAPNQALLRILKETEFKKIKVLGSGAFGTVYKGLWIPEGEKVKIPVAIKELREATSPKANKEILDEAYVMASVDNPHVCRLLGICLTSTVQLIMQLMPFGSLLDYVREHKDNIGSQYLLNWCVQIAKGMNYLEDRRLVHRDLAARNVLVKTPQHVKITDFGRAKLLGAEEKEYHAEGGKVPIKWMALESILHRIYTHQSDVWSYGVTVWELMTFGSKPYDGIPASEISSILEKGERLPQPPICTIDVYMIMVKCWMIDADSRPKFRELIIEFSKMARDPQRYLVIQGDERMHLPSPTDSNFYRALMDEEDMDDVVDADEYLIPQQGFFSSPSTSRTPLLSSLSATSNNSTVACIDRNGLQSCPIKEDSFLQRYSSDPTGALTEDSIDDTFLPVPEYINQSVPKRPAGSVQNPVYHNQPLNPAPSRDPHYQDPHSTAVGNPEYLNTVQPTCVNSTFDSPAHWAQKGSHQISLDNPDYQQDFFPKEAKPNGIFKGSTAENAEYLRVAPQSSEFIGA
Procedure: as §1, §2

[4] = biological target: EGFR wildtype (WT) (Homo sapiens, UniProt P00533); assay: Biochemical EGFR kinase assay (Lance Ultra TR-FRET), wildtype
Sequence of EGFR wildtype (WT) (P00533 25-1210): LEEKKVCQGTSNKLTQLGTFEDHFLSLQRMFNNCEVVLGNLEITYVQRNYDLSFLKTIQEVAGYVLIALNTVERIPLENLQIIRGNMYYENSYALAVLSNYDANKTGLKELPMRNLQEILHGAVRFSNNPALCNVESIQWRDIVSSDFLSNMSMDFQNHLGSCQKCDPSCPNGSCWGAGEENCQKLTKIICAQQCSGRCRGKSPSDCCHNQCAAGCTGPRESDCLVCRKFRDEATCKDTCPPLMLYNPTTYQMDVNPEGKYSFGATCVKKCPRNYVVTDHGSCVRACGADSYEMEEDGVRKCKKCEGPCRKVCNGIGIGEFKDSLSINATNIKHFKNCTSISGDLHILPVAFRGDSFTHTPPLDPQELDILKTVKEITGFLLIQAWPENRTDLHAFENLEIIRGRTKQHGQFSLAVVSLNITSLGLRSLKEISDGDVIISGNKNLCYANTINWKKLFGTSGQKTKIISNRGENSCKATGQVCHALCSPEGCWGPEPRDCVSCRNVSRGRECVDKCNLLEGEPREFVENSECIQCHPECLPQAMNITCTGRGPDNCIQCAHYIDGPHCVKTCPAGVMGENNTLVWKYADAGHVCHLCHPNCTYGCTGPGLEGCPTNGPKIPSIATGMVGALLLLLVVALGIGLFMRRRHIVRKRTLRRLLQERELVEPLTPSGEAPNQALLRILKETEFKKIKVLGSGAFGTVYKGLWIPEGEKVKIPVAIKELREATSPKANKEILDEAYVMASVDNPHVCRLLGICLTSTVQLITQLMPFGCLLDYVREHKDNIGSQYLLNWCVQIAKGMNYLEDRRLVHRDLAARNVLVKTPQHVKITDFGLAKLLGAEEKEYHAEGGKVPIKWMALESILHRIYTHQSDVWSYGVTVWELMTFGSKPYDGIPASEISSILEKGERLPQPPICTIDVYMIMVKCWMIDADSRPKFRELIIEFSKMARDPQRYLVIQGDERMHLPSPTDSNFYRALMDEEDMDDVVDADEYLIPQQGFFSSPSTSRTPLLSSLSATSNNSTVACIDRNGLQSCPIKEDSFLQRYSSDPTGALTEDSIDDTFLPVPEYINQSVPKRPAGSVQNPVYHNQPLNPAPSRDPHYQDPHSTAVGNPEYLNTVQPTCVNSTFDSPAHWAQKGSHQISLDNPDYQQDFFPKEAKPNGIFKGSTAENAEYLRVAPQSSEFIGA
Procedure: as §1, §2

[5] = biological target: EGFR L858R/C797S (Homo sapiens, UniProt P00533, C797S/L858R); assay: Biochemical EGFR kinase assay (Lance Ultra TR-FRET), double mutant L858R/C797S
Sequence of EGFR L858R/C797S (P00533 25-1210 C797S/L858R): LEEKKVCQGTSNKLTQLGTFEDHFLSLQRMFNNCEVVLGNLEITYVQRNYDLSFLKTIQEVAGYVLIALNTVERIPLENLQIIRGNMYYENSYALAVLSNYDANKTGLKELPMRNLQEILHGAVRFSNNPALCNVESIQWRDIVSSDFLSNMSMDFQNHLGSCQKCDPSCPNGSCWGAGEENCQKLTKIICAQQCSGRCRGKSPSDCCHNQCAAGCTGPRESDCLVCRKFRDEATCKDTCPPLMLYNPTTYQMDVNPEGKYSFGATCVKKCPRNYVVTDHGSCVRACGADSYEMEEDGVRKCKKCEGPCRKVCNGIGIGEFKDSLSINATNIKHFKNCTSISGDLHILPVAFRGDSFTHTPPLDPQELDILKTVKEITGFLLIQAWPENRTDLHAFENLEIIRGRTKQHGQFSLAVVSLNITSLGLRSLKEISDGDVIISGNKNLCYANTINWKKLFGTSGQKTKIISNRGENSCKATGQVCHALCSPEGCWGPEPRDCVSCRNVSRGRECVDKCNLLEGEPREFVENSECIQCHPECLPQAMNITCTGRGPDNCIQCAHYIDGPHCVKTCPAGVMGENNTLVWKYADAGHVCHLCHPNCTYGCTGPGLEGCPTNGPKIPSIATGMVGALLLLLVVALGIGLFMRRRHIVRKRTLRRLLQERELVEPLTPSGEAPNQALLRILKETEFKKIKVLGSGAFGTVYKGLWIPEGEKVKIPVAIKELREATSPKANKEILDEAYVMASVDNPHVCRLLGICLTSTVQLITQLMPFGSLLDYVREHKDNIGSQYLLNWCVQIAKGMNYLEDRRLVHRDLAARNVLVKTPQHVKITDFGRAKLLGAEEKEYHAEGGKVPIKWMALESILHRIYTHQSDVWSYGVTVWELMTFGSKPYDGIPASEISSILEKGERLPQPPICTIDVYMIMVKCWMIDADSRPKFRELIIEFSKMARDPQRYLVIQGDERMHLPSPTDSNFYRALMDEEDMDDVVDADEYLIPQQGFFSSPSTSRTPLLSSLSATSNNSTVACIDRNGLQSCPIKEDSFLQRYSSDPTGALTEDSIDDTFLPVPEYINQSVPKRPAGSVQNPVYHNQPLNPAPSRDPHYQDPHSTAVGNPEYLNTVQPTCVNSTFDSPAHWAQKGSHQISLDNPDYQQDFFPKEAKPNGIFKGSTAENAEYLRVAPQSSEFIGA
Procedure: as §1, §2

[6] = Km ATP, read-out: IC50 del19/T790M/C797S (nM) Km ATP
[7] = Km ATP, read-out: IC50 L858R/T790M/C797S (nM) Km ATP
[8] = Km ATP, read-out: IC50 WT (nM) Km ATP
[9] = Km ATP, read-out: IC50 L858R/C797S (nM) Km ATP
[10] = IC50 L858R/T790M/C797S (nM) 100 μM ATP, 100 μM ATP
[11] = IC50 WT (nM) 100 μM ATP, 100 μM ATP
[12] = IC50 L858R/C797S (nM) 100 μM ATP, 100 μM ATP
[13] = IC50 del19/T790M/C797S (nM) 100 μM ATP, 100 μM ATP

IC50 [1] [nM] | IC50 [2, 6] [nM] | IC50 [3, 7] [nM] | IC50 [4, 8] [nM] | IC50 [5, 9] [nM] | IC50 [3, 10] [nM] | IC50 [4, 11] [nM] | IC50 [5, 12] [nM] | IC50 [2, 13] [nM] | Compound
371 | 31.3 | – | – | – | – | – | – | – | Cn1cc(C#Cc2cc(Nc3ccnc(-c4cnn(S(=O)(=O)C5CC5)c4)n3)ncc2-c2cnn(C(F)F)c2)cn1 [Example 2, 2-(1-(Cyclopropylsulfonyl)-1H-pyrazol-4-yl)-N-(5-(1-(difluoromethyl)-1H-pyrazol-4-yl)-4-((1-methyl-1H-pyrazol-4-yl)ethynyl)pyridin-2-yl)pyrimidin-4-amine]
– | 3.2 | 0.8 | 214 | 75.9 | – | – | – | – | Cn1cc(-c2cnc(Nc3ccnc(-c4cnn(S(=O)(=O)C5CC5)c4)n3)cc2C#CC(C)(C)O)cn1 [Example 4, 4-(2-((2-(1-(Cyclopropylsulfonyl)-1H-pyrazol-4-yl)pyrimidin-4-yl)amino)-5-(1-methyl-1H-pyrazol-4-yl)pyridin-4-yl)-2-methylbut-3-yn-2-ol]
– | 0.9 | 0.6 | – | 1 | 1.9 | 7830 | 11.3 | 1.4 | Cn1ccc(-c2cnc(Nc3ccnc(-c4cnn(S(=O)(=O)C5CC5)c4)n3)cc2N[C@H]2CC[C@@H](C(C)(C)O)CC2)n1 [Example 42, 2-((1s,4s)-4-((2-((2-(1-(Cyclopropylsulfonyl)-1H-pyrazol-4-yl)pyrimidin-4-yl)amino)-5-(1-methyl-1H-pyrazol-3-yl)pyridin-4-yl)amino)cyclohexyl)propan-2-ol]
– | – | – | – | – | – | > 10000 | 7 | 2.4 | C[C@]1(O)CC[C@@H](Nc2cc(Nc3ccnc(-c4cnn(S(=O)(=O)C5CC5)c4)n3)ncc2-c2csc(C(F)(F)F)n2)CC1 [Example 51, (1s,4s)-4-((2-((2-(1-(Cyclopropylsulfonyl)-1H-pyrazol-4-yl)pyrimidin-4-yl)amino)-5-(2-(trifluoromethyl)thiazol-4-yl)pyridin-4-yl)amino)-1-methylcyclohexan-1-ol]
– | 0.5 | 0.2 | 65.3 | 2.9 | 1.1 | > 10000 | 41.3 | 0.4 | CC1(O)CCC(Oc2cc(Nc3ccnc(-c4cnn(S(=O)(=O)C5CC5)c4)n3)ncc2-c2cnn(C(F)F)c2)CC1 (stereo not shown) [Example 73, 4-((2-((2-(1-(Cyclopropylsulfonyl)-1H-pyrazol-4-yl)pyrimidin-4-yl)amino)-5-(1-(difluoromethyl)-1H-pyrazol-4-yl)pyridin-4-yl)oxy)-1-methylcyclohexan-1-ol]
– | – | – | – | – | 1 | > 10000 | 6.7 | 0.6 | CC(C)n1ccc(-c2cnc(Nc3ccnc(-c4cnn(S(=O)(=O)C5CC5)c4)n3)cc2N[C@H]2CC[C@@](C)(O)CC2)n1 [Example 84, (1s,4s)-4-((2-((2-(1-(Cyclopropylsulfonyl)-1H-pyrazol-4-yl)pyrimidin-4-yl)amino)-5-(1-isopropyl-1H-pyrazol-3-yl)pyridin-4-yl)amino)-1-methylcyclohexan-1-ol]
– | 0.6 | 0.2 | 4.2 | 1 | – | – | – | – | CC1(O)CCC(Nc2cc(Nc3ccnc(-c4cnn(S(=O)(=O)C5CCOC5)c4)n3)ncc2-c2ccn(C(F)F)n2)CC1 (stereo not shown) [Example 114, (1s,4s)-4-((5-(1-(Difluoromethyl)-1H-pyrazol-3-yl)-2-((2-(1-((tetrahydrofuran-3-yl)sulfonyl)-1H-pyrazol-4-yl)pyrimidin-4-yl)amino)pyridin-4-yl)amino)-1-methylcyclohexan-1-ol]
– | 1.9 | 1.3 | 20.2 | – | – | – | – | – | C[C@]1(O)CC[C@@H](Nc2cc(Nc3ccnc(-c4cnn(S(=O)(=O)C5CCCC5)c4)n3)ncc2-c2ccn(C(F)F)n2)CC1 [Example 115, (1s,4s)-4-((2-((2-(1-(Cyclopentylsulfonyl)-1H-pyrazol-4-yl)pyrimidin-4-yl)amino)-5-(1-(difluoromethyl)-1H-pyrazol-3-yl)pyridin-4-yl)amino)-1-methylcyclohexan-1-ol]
– | 1.2 | 0.4 | 12.8 | 2.4 | 1.4 | 8920 | 19.8 | 1.7 | CN1CCN(c2nc(-c3cnc(Nc4ccnc(-c5cnn(S(=O)(=O)C6CC6)c5)n4)cc3N[C@H]3CC[C@@](C)(O)CC3)cs2)CC1 [Example 121, (1s,4s)-4-((2-((2-(1-(Cyclopropylsulfonyl)-1H-pyrazol-4-yl)pyrimidin-4-yl)amino)-5-(2-(4-methylpiperazin-1-yl)thiazol-4-yl)pyridin-4-yl)amino)-1-methylcyclohexan-1-ol]
– | – | 0.3 | 9 | – | 0.4 | 1420 | 8.5 | 0.6 | C[C@]1(O)CC[C@@H](Nc2cc(Nc3ccnc(-c4cnn(S(=O)(=O)C5CC5)c4)n3)ncc2-c2nc(C(F)F)cs2)CC1 [Example 122, (1s,4s)-4-((2-((2-(1-(Cyclopropylsulfonyl)-1H-pyrazol-4-yl)pyrimidin-4-yl)amino)-5-(4-(difluoromethyl)thiazol-2-yl)pyridin-4-yl)amino)-1-methylcyclohexan-1-ol]
– | 0.3 | 0.1 | 3.4 | 9.3 | – | – | – | – | C[C@]1(O)CC[C@@H](Nc2cc(Nc3ccnc(-c4cnn(S(=O)(=O)C5CC5)c4)n3)ncc2-n2ccc(C(F)F)n2)CC1 [Example 172, (1s,4s)-4-((2-((2-(1-(Cyclopropylsulfonyl)-1H-pyrazol-4-yl)pyrimidin-4-yl)amino)-5-(3-(difluoromethyl)-1H-pyrazol-1-yl)pyridin-4-yl)amino)-1-methylcyclohexan-1-ol]
– | 0.8 | 0.3 | 15.3 | 10.5 | 1 | 5120 | 200 | 0.7 | CN(C)CC1(C)CCC(Nc2cc(Nc3ccnc(-c4cnn(S(=O)(=O)C5CC5)c4)n3)ncc2-c2ccn(C(F)F)n2)CC1 (stereo not shown) [Example 207, N^2-(2-(1-(Cyclopropylsulfonyl)-1H-pyrazol-4-yl)pyrimidin-4-yl)-5-(1-(difluoromethyl)-1H-pyrazol-3-yl)-N^4-(4-((dimethylamino)methyl)-4-methylcyclohexyl)pyridine-2,4-diamine]
– | 2.5 | 1.4 | 9 | – | 2.8 | 2070 | 26.7 | 5.1 | CN(C)C(=O)C[C@H]1CC[C@@H](Nc2cc(Nc3ccnc(-c4cnn(S(=O)(=O)C5CC5)c4)n3)ncc2-c2cc(C(F)(F)F)n(C)n2)CC1 [Example 258, 2-((1s,4s)-4-((2-((2-(1-(Cyclopropylsulfonyl)-1H-pyrazol-4-yl)pyrimidin-4-yl)amino)-5-(1-methyl-5-(trifluoromethyl)-1H-pyrazol-3-yl)pyridin-4-yl)amino)cyclohexyl)-N,N-dimethylacetamide]
– | 0.6 | 0.3 | 4.8 | 0.6 | 0.5 | 2000 | 2.9 | 0.6 | CC(C)(O)[C@H]1CC[C@@H](Nc2cc(Nc3ccnc(-c4cnn(S(=O)(=O)C5CC5)c4)n3)ncc2-c2ccn(C3COC3)n2)CC1 [Example 283, 2-((1s,4s)-4-((2-((2-(1-(Cyclopropylsulfonyl)-1H-pyrazol-4-yl)pyrimidin-4-yl)amino)-5-(1-(oxetan-3-yl)-1H-pyrazol-3-yl)pyridin-4-yl)amino)cyclohexyl)propan-2-ol]
– | 0.7 | 0.6 | 3.8 | 0.3 | – | – | – | – | C[C@]1(O)CC[C@@H](Nc2cc(Nc3ccnc(-c4cnn(S(=O)(=O)C5CC5)c4)n3)ncc2-c2ccn(CCC(F)(F)F)n2)CC1 [Example 295, (1s,4s)-4-((2-((2-(1-(Cyclopropylsulfonyl)-1H-pyrazol-4-yl)pyrimidin-4-yl)amino)-5-(1-(3,3,3-trifluoropropyl)-1H-pyrazol-3-yl)pyridin-4-yl)amino)-1-methylcyclohexan-1-ol]
7.5 | – | – | 20.9 | – | – | – | – | – | Cn1nc(-c2cnc(Nc3ccnc(-c4cnn(S(=O)(=O)C5CC5)c4)n3)cc2N[C@H]2CC[C@@](C)(O)CC2)cc1N1CCC(F)(F)CC1 [Example 307, (1s,4s)-4-((2-((2-(1-(Cyclopropylsulfonyl)-1H-pyrazol-4-yl)pyrimidin-4-yl)amino)-5-(5-(4,4-difluoropiperidin-1-yl)-1-methyl-1H-pyrazol-3-yl)pyridin-4-yl)amino)-1-methylcyclohexan-1-ol]
